# Assay results as given in BindingDB's records for doi:10.1021/acschembio.7b00124 (University of Helsinki, 2017).
# Where a SMILES comes first, the peptide text is derived from it. Bridges are numbered along the chain shown (N, C = ends). [ ]: non-standard residue; d: D form. ξ: configuration not given here. Thr(3ξ) = CC(O)[C@H](N)C(=O)O; hLys = NCCCCC[C@H](N)C(=O)O
# Key:
# [1] = molecular target: Chymotrypsin-like elastase family member 1 (Bos taurus, UniProt Q28153); assay: Protease Inhibition Assays; conditions: 37 °C
# Description: (§1) The inhibition assays were performed in 96-well microtiter plates as follows: 30 uL of the enzyme solution (trypsin [100 ug/mL] or elastase [1.5 U/mL]) and 60 uL of the buffer (50 mM Tris-HCl, 20 mM CaCl2 at pH 7.5) were pipetted into a series of six wells. A total of 10 uL of a 2000 uM peptide solution (microviridin variant) was then added to well 1 and serially diluted up to well 5; well 6 was used as the control. After completing the serial dilution of the sample, 10 uL was taken from well 5 and discarded to maintain the same volume in all wells. The plates were then incubated for 5 min at 37 °C, and subsequently 90 uL of the substrate solution (trypsin assay, N-benzoyl-DL-arginine-4-nitroanilide hydrochloride (BAPNA) [2.17 mg mL-1]; elastase assay, succinyl-Ala-Ala-Ala-p-nitroanilide (Suc-ALA3-pNA) [1 mg mL-1]) was added to each well. The enzymatic activity was measured spectrophotometrically (Varioscan Flash, Thermo Scientific) at 410 nm after incubation at 37 °C for 15 m
# Serine protease 1 = molecular target: T1, Serine protease 1 (Bos taurus, UniProt P00760); assay: Protease Inhibition Assays; conditions: 37 °C
# T1 sequence (P00760 whole entry): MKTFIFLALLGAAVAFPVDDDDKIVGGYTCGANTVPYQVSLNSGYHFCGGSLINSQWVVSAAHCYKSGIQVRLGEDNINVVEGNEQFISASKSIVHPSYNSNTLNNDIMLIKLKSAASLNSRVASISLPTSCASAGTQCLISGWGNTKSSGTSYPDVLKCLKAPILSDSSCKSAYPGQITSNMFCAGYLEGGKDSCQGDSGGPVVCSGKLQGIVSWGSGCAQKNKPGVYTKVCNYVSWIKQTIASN
# Description: as §1
# Sequence of Chymotrypsin-like elastase family member 1 (Q28153 whole entry): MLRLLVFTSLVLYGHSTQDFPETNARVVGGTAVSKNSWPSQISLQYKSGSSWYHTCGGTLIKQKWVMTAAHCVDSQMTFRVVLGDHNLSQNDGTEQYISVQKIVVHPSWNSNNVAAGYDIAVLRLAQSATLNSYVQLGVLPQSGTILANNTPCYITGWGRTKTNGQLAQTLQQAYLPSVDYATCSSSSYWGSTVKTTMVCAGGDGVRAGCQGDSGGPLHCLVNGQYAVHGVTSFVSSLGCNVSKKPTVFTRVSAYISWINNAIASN
SMILES,IC50 [1] [µM],IC50 (Serine protease 1) [nM]
"CC(C)C[C@@H]1NC(=O)[C@@H](NC(=O)[C@H](CC(N)=O)NC(=O)[C@H](CCC(N)=O)NC(=O)[C@@H](N)Cc2ccc(O)cc2)C(C)OC(=O)C[C@@H]2NC(=O)[C@@H]3COC(=O)CC[C@H](NC(=O)[C@H](Cc4c[nH]c5ccccc45)NC2=O)C(=O)N[C@H](C(=O)N[C@@H](Cc2ccc(O)cc2)C(=O)O)CCC(=O)NCCCC[C@H](NC1=O)C(=O)N[C@@H](Cc1ccc(O)cc1)C(=O)N1CCC[C@H]1C(=O)N3 (some centres undefined) [MdnA7] (H-YQN[Thr(3ξ)]LKYPSDWEEY-OH; ester 4-10, 9-12; lactam 6-13)",1.05,
"CC(C)[C@H](NC(=O)[C@@H](N)[C@@H](C)O)C(=O)N[C@@H]1C(=O)N[C@@H](CCCNC(=N)N)C(=O)N[C@H]2CCCCNC(=O)C[C@@H](C(=O)N[C@@H](Cc3ccc(O)cc3)C(=O)O)NC(=O)[C@@H]3CCC(=O)OC[C@H](NC(=O)[C@@H]4CCCN4C(=O)[C@H](Cc4ccc(O)cc4)NC2=O)C(=O)N[C@@H](CC(=O)OC1C)C(=O)N[C@@H](Cc1c[nH]c2ccccc12)C(=O)N3 (some centres undefined) [MdnA3] (H-TV[Thr(3ξ)]RKYPSDWEDY-OH; ester 3-9, 8-11; lactam 5-12)",,28.4
"CC(C)C[C@@H]1NC(=O)[C@@H](NC(=O)[C@H](C)N)C(C)OC(=O)C[C@@H]2NC(=O)[C@@H]3COC(=O)CC[C@H](NC(=O)[C@H](Cc4c[nH]c5ccccc45)NC2=O)C(=O)N[C@H](C(=O)N[C@@H](Cc2ccc(O)cc2)C(=O)O)CCC(=O)NCCCC[C@H](NC1=O)C(=O)N[C@@H](Cc1ccc(O)cc1)C(=O)N1CCC[C@H]1C(=O)N3 (some centres undefined) [MdnA8] (H-A[Thr(3ξ)]LKYPSDWEEY-OH; ester 2-8, 7-10; lactam 4-11)",21.9,
"CC(C)[C@H](NC(=O)[C@@H](N)Cc1ccc(O)cc1)C(=O)N[C@@H]1C(=O)N[C@@H](CCCCCN)C(=O)N[C@H]2CCCCNC(=O)CC[C@@H](C(=O)N[C@@H](Cc3ccc(O)cc3)C(=O)O)NC(=O)[C@@H]3CCC(=O)OC[C@H](NC(=O)[C@@H]4CCCN4C(=O)[C@H](Cc4ccc(O)cc4)NC2=O)C(=O)N[C@@H](CC(=O)OC1C)C(=O)N[C@@H](Cc1c[nH]c2ccccc12)C(=O)N3 (some centres undefined) [MdnA6] (H-YV[Thr(3ξ)][hLys]KYPSDWEEY-OH; ester 3-9, 8-11; lactam 5-12)",,21.5
